Test results reported in US9924721B2 (priority 2013, dated 2018).
Marks after values point to notes of the source that are not given here.

Tests used:
[1] = pH 2.7
Phytophthora infestans = assay: microbe, parasite or virus in culture; format: cell-based; conditions: 8 days incubation
[2] = 0.25 μg/mL of active ingredient

SMILES | Log P [1] | Eff. % (inhibition of fungal growth) (Phytophthora infestans; [2]) [%] | Eff. % (inhibition of fungal growth) (Phytophthora infestans; 20 μg/mL of active ingredient) [%]
CS(=O)(=O)Oc1cccc(Cl)c1C1CC(c2csc(C3CCN(C(=O)CC(=O)OCc4ccccc4)CC3)n2)=NO1 (stereo not shown) [Example I-76] | 3.12^[a] | – | –
CCOC(=O)CC(=O)N1CCC(c2nc(C3=NOC(c4c(F)cccc4OS(C)(=O)=O)C3)cs2)CC1 (stereo not shown) [Example I-54] | 2.29^[a] | – | –
CS(=O)(=O)Oc1ccccc1C1CC(c2csc(C3CCN(C(=O)CC(=O)OCc4ccccc4)CC3)n2)=NO1 (stereo not shown) [Example I-75] | 2.89^[a] | – | –
COCCOC(=O)C(Br)C(=O)N1CCC(c2nc(C3=NOC(c4ccccc4OS(C)(=O)=O)C3)cs2)CC1 (stereo not shown) [Example I-36] | 2.53^[a] | – | –
C#CCOc1cccc(F)c1C1CC(c2csc(C3CCN(C(=O)C(Br)C(=O)OCCOC)CC3)n2)=NO1 (stereo not shown) [Example I-24] | 2.85^[a] | – | –
C#CCOc1ccccc1C1CC(c2csc(C3CCN(C(=O)C(C(=O)OCc4ccccc4)n4nc(C(F)F)cc4C(F)F)CC3)n2)=NO1 (stereo not shown) [Example I-62] | 4.16^[a] | 100 | –
C#CCOc1cccc(Cl)c1C1CC(c2csc(C3CCN(C(=O)C(Br)C(=O)OCc4ccccc4)CC3)n2)=NO1 (stereo not shown) [Example I-69] | 3.85^[a] | – | –
CS(=O)(=O)Oc1cccc(Cl)c1C1CC(c2csc(C3CCN(C(=O)C(Br)C(=O)OCc4ccccc4)CC3)n2)=NO1 (stereo not shown) [Example I-67] | 3.54^[a] | – | –
CC(C)OC(=O)CC(=O)N1CCC(c2nc(C3=NOC(c4ccccc4OS(C)(=O)=O)C3)cs2)CC1 (stereo not shown) [Example I-58] | 2.56^[a] | – | 100
CCCCCC(CC)OC(=O)C(C(=O)N1CCC(c2nc(C3=NOC(c4c(F)cccc4OS(C)(=O)=O)C3)cs2)CC1)n1nc(C(F)F)cc1C(F)F (stereo not shown) [Example I-22] | 4.04^[a] | – | –
CCCCCC(CC)OC(=O)CC(=O)N1CCC(c2nc(C3=NOC(c4ccccc4OS(C)(=O)=O)C3)cs2)CC1 (stereo not shown) [Example I-45] | 4.07^[a] | – | 100
C#CCOc1ccccc1C1CC(c2csc(C3CCN(C(=O)C(Br)C(=O)OC(C)(C)C)CC3)n2)=NO1 (stereo not shown) [Example I-73] | 3.68^[a] | – | –
CC(C)OC(=O)C(Br)C(=O)N1CCC(c2nc(C3=NOC(c4ccccc4OS(C)(=O)=O)C3)cs2)CC1 (stereo not shown) [Example I-37] | 2.99^[a] | – | –
CS(=O)(=O)Oc1cccc(Cl)c1C1CC(c2csc(C3CCN(C(=O)C(C(=O)OCc4ccccc4)n4nc(C(F)F)cc4C(F)F)CC3)n2)=NO1 (stereo not shown) [Example I-61] | 3.98^[a] | 100 | –
CCCCCC(CC)OC(=O)C(C(=O)N1CCC(c2nc(C3=NOC(c4ccccc4C=O)C3)cs2)CC1)n1nc(C(F)F)cc1C(F)F (stereo not shown) [Example I-21] | 5.20^[a] | – | –
CCOC(=O)C(C(=O)N1CCC(c2nc(C3=NOC(c4ccccc4OS(C)(=O)=O)C3)cs2)CC1)n1nc(C(F)(F)F)cc1C (stereo not shown) [Example I-19] | 3.42^[a] | – | 100
C#CCOc1cccc(Cl)c1C1CC(c2csc(C3CCN(C(=O)CC(=O)OC(C)(C)C)CC3)n2)=NO1 (stereo not shown) [Example I-80] | 3.36^[a] | 100 | –
CC(C)(C)OC(=O)C(C(=O)N1CCC(c2nc(C3=NOC(c4c(Cl)cccc4OS(C)(=O)=O)C3)cs2)CC1)n1nc(C(F)F)cc1C(F)F (stereo not shown) [Example I-64] | 4.00^[a] | 100 | –
CC(C)OC(=O)C(C(=O)N1CCC(c2nc(C3=NOC(c4ccccc4C=O)C3)cs2)CC1)n1nc(C(F)F)cc1C(F)F (stereo not shown) [Example I-13] | 3.70^[a] | 94 | –
CCOC(=O)C(Br)C(=O)N1CCC(c2nc(C3=NOC(c4ccccc4C=O)C3)cs2)CC1 (stereo not shown) [Example I-25] | 2.82^[a] | – | 100
C#CCOc1cccc(Cl)c1C1CC(c2csc(C3CCN(C(=O)CC(=O)OCc4ccccc4)CC3)n2)=NO1 (stereo not shown) [Example I-78] | 3.45^[a] | 88 | –
CC(C)OC(=O)C(Br)C(=O)N1CCC(c2nc(C3=NOC(c4c(F)cccc4OS(C)(=O)=O)C3)cs2)CC1 (stereo not shown) [Example I-23] | 2.97^[a] | 100 | –
C#CCOc1ccccc1C1CC(c2csc(C3CCN(C(=O)CC(=O)OCc4ccccc4)CC3)n2)=NO1 (stereo not shown) [Example I-77] | 3.30^[a] | – | –
C#CCOc1ccccc1C1CC(c2csc(C3CCN(C(=O)CC(=O)OC(CC)CCCCC)CC3)n2)=NO1 (stereo not shown) [Example I-57] | 4.56^[a] | – | –

SMILES | Log P [1] | Eff. % (inhibition of fungal growth) (Phytophthora infestans; [2]) [%] | Eff. % (inhibition of fungal growth) (Phytophthora infestans; 20 μg/mL of active ingredient) [%]
C#CCOc1cccc(F)c1C1CC(c2csc(C3CCN(C(=O)C(C(=O)OC(CC)CCCCC)n4nc(C(F)F)cc4C(F)F)CC3)n2)=NO1 (stereo not shown) [Example I-18] | 5.22^[a] | – | –
C#CCOc1ccccc1C1CC(c2csc(C3CCN(C(=O)C(Br)C(=O)OCc4ccccc4)CC3)n2)=NO1 (stereo not shown) [Example I-70] | 3.72^[a] | – | –
C#CCOc1ccccc1C1CC(c2csc(C3CCN(C(=O)CC(=O)OC(C)(C)C)CC3)n2)=NO1 (stereo not shown) [Example I-82] | 3.22^[a] | – | –
CCOC(=O)C(C(=O)N1CCC(c2nc(C3=NOC(c4ccccc4OS(C)(=O)=O)C3)cs2)CC1)n1cc(C(F)(F)F)nc1C (stereo not shown) [Example I-12] | 2.99^[a] | – | –
CCOC(=O)CC(=O)N1CCC(c2nc(C3=NOC(c4ccccc4C=O)C3)cs2)CC1 (stereo not shown) [Example I-53] | 2.34^[a] | – | 100
CCCCCC(CC)OC(=O)CC(=O)N1CCC(c2nc(C3=NOC(c4c(F)cccc4OS(C)(=O)=O)C3)cs2)CC1 (stereo not shown) [Example I-48] | 4.03^[a] | – | –
CCCCCC(CC)OC(=O)C(Br)C(=O)N1CCC(c2nc(C3=NOC(c4ccccc4OS(C)(=O)=O)C3)cs2)CC1 (stereo not shown) [Example I-39] | 4.55^[a] | – | –
C#CCOc1cccc(Cl)c1C1CC(c2csc(C3CCN(C(=O)C(Br)C(=O)OCC)CC3)n2)=NO1 (stereo not shown) [Example I-31] | 3.20^[a] | – | –
C#CCOc1ccccc1C1CC(c2csc(C3CCN(C(=O)C(Br)C(=O)OC(C)C)CC3)n2)=NO1 (stereo not shown) [Example I-32] | 3.43^[a] | – | –
C#CCOc1cccc(Cl)c1C1CC(c2csc(C3CCN(C(=O)C(Br)C(=O)OC(C)(C)C)CC3)n2)=NO1 (stereo not shown) [Example I-71] | 3.84^[a] | 100 | –
CCCCCC(CC)OC(=O)C(Br)C(=O)N1CCC(c2nc(C3=NOC(c4ccccc4C=O)C3)cs2)CC1 (stereo not shown) [Example I-28] | 4.83^[a] | – | 100
C#CCOc1cccc(F)c1C1CC(c2csc(C3CCN(C(=O)C(Br)C(=O)OC(CC)CCCCC)CC3)n2)=NO1 (stereo not shown) [Example I-35] | 4.89^[a] | – | –
CCOC(=O)C(C(=O)N1CCC(c2nc(C3=NOC(c4ccccc4C=O)C3)cs2)CC1)n1nc(C(F)F)cc1C(F)F (stereo not shown) [Example I-14] | 3.40^[a] | – | –
CCCCCC(CC)OC(=O)C(C(=O)N1CCC(c2nc(C3=NOC(c4ccccc4OS(C)(=O)=O)C3)cs2)CC1)n1nc(C(F)F)cc1C(F)F (stereo not shown) [Example I-10] | 4.96^[a] | – | 97
CC(C)(C)OC(=O)CC(=O)N1CCC(c2nc(C3=NOC(c4c(Cl)cccc4OS(C)(=O)=O)C3)cs2)CC1 (stereo not shown) [Example I-79] | 3.04^[a] | – | –
CS(=O)(=O)Oc1ccccc1C1CC(c2csc(C3CCN(C(=O)C(Br)C(=O)OCc4ccccc4)CC3)n2)=NO1 (stereo not shown) [Example I-68] | 3.31^[a] | – | –
C#CCOc1cccc(Cl)c1C1CC(c2csc(C3CCN(C(=O)C(C(=O)OCc4ccccc4)n4nc(C(F)F)cc4C(F)F)CC3)n2)=NO1 (stereo not shown) [Example I-59] | 4.28^[a] | 100 | –
CC(C)(C)OC(=O)CC(=O)N1CCC(c2nc(C3=NOC(c4ccccc4OS(C)(=O)=O)C3)cs2)CC1 (stereo not shown) [Example I-81] | 2.80^[a] | – | –
C#CCOc1cccc(F)c1C1CC(c2csc(C3CCN(C(=O)CC(=O)OCCOC)CC3)n2)=NO1 (stereo not shown) [Example I-43] | 2.43^[a] | – | –
CC(C)(C)OC(=O)C(C(=O)N1CCC(c2nc(C3=NOC(c4ccccc4OS(C)(=O)=O)C3)cs2)CC1)n1nc(C(F)F)cc1C(F)F (stereo not shown) [Example I-66] | 3.74^[a] | 100 | –
CC(C)(C)OC(=O)C(Br)C(=O)N1CCC(c2nc(C3=NOC(c4c(Cl)cccc4OS(C)(=O)=O)C3)cs2)CC1 (stereo not shown) [Example I-72] | 3.50^[a] | – | –
CC(C)(C)OC(=O)C(Br)C(=O)N1CCC(c2nc(C3=NOC(c4ccccc4OS(C)(=O)=O)C3)cs2)CC1 (stereo not shown) [Example I-74] | 3.24^[a] | – | –
CC(C)OC(=O)C(Br)C(=O)N1CCC(c2nc(C3=NOC(c4ccccc4C=O)C3)cs2)CC1 (stereo not shown) [Example I-29] | 3.11^[a] | – | –
